From patent US8383619B2, “Pharmaceutical compounds” (Astex Therapeutics Limited, priority 2008, dated 2013) come the findings set out here.

The nature of data set [1]: Liver homogenate stability. It counts as in vitro ADME. The conditions noted are these: 1 μM, 37° C., 120 mins. The text has this: (§1) The breakdown of a prodrug in vivo could occur in one or more of several different compartments including for example, but not limited to blood/plasma, liver, stomach, target tissue (e.g. tumour). The preferred location for optimum formation of the parent drug will depend on the disposition in vivo of the pro-drug and parent and an understanding of the optimum concentrations of each required in the circulation to maximise exposure to the active moiety in the target tissue. The potential for pro-drug molecules to deliver the active parent drug may be assessed in vitro by measuring the breakdown of a pro-drug in the presence of relevant body fluids. For the purpose of gaining a preliminary understanding of the stability of compounds of the invention to enzymatic hydrolysis in two such bodily compartments, compound turnover has been studied following incubation in whole blood and liver homogenate from mice and humans. The data obtained from these studies provide a preliminary understanding of which of the prodrugs are better able to deliver parent compound (i.e. are more rapidly broken down to parent compound) in these compartments. Further studies could also determine stability in other compartments (e.g. in the target tumours by measuring stability in tumour lysates).
Mouse livers were obtained from 20 male mice, strain: Balb/c from stock animals. Human liver tissue was obtained from 3 individuals sourced from a UK human tissue bank. The livers were stored frozen. The livers were defrosted and then homogenised to form a homogenate of approximately 30% (w/v) in phosphate buffer, 100 mM, pH 7.4 (referred to as ‘buffer’). Homogenates were kept on ice until use.
(§2) Each incubation consisted of a volume of 1 mL. Test compound dosing solutions were then spiked into each homogenate at a final compound concentration of 1 μM. Incubations were performed in the atmosphere in a shaking water bath at 37° C.
(§3) An aliquot of incubation samples was removed into an equal volume of ice-cold acetonitrile at various time points. Samples (whole blood/homogenate+acetonitrile) were centrifuged and aliquots of the supernatant were analysed by HPLC-MS/MS.
(§4) The compound X (2,4-dihydroxy-5-isopropyl-phenyl)-[5-(4-methyl-piperazin-1-ylmethyl)-1,3-dihydro-isoindol-2-yl]-methanone) and the compounds of Examples 1 to 24 were incubated in both whole blood and liver homogenate by Quotient Bioresearch (Rushden, UK). The percentage remaining of parent compound following incubation in whole blood/liver homogenate from human and mouse are set out in the table below.

The nature of a further data set: Whole blood stability. It counts as in vitro ADME. The conditions noted are these: 1 μM, 37° C.
Text: as §1
For these studies, human whole blood was collected from 3 male healthy volunteers in lithium heparin tubes. The blood was pooled and stored at room temperature for a maximum of 2 hours prior to initiation of incubations. Mouse blood was collected from 70 male mice, strain: Balb/c into lithium heparin tubes and pooled.
as §2, §3, §4

SMILES strings stand for the structures.

Turning to `CC(C)c1cc(C(=O)N2Cc3ccc(CN4CCN(C)CC4)cc3C2)c(O)cc1O` [Compound X, (2,4-dihydroxy-5-isopropyl-phenyl)-[5-(4-methyl-piperazin-1-ylmethyl)-1,3-dihydro-isoindol-2-yl]-methanone], in data set [1], the “Percentage remaining Human Liver” value was found to be 94% and the “Percentage remaining Mouse Liver” value worked out at 112%. Further, in the data set “Whole blood stability” (120 mins), the “Percentage remaining Human blood” value is given as 100% and the “Percentage remaining Mouse blood” value is 102%.

Take `COc1cc(O)c(C(C)C)cc1C(=O)N1Cc2ccc(CN3CCN(C)CC3)cc2C1` [Example 1, (4-Hydroxy-5-isopropyl-2-methoxy-phenyl)-[5-(4-methyl-piperazin-1-ylmethyl)-1,3-dihydro-isoindol-2-yl]-methanone]: in data set [1], the “Percentage remaining Human Liver” value was 99% and the “Percentage remaining Mouse Liver” value is on record as 104%. For the same compound, in “Whole blood stability” (120 mins), the “Percentage remaining Human blood” value was found to be 100% and the “Percentage remaining Mouse blood” value is 104%.

With `COc1cc(O)c(C(=O)N2Cc3ccc(CN4CCN(C)CC4)cc3C2)cc1C(C)C` [Example 2, (2-Hydroxy-5-isopropyl-4-methoxy-phenyl)-[5-(4-methyl-piperazin-1-ylmethyl)-1,3-dihydro-isoindol-2-yl]-methanone], in data set [1], the “Percentage remaining Human Liver” value stood at 85% and the “Percentage remaining Mouse Liver” value amounted to 100%. For the same compound, in “Whole blood stability” (120 mins), the “Percentage remaining Human blood” value is reported as 122% and the “Percentage remaining Mouse blood” value is recorded as 129%.

As to `COc1cc(OC)c(C(C)C)cc1C(=O)N1Cc2ccc(CN3CCN(C)CC3)cc2C1` [Example 3, (5-Isopropyl-2,4-dimethoxy-phenyl)-[5-(4-methyl-piperazin-1-ylmethyl)-1,3-dihydro-isoindol-2-yl]-methanone], in data set [1], the “Percentage remaining Human Liver” value is reported as 79% and the “Percentage remaining Mouse Liver” value came to 93%. For the same compound, in “Whole blood stability” (120 mins), the “Percentage remaining Human blood” value was 107% and the “Percentage remaining Mouse blood” value was found to be 100%.

Consider `C=CCOc1cc(O)c(C(C)C)cc1C(=O)N1Cc2ccc(CN3CCN(C)CC3)cc2C1` [Example 4, (2-Allyloxy-4-hydroxy-5-isopropyl-phenyl)-[5-(4-methyl-piperazin-1-ylmethyl)-1,3-dihydro-isoindol-2-yl]-methanone], for which, in data set [1], the “Percentage remaining Human Liver” value was 92% and the “Percentage remaining Mouse Liver” value is given as 63%. In addition, in the data set “Whole blood stability” (120 mins), the “Percentage remaining Human blood” value amounted to 109% and the “Percentage remaining Mouse blood” value is on record as 106%.

`C=CCOc1cc(O)c(C(=O)N2Cc3ccc(CN4CCN(C)CC4)cc3C2)cc1C(C)C` [Example 5, (4-Allyloxy-2-hydroxy-5-isopropyl-phenyl)-[5-(4-methyl-piperazin-1-ylmethyl)-1,3-dihydro-isoindol-2-yl]-methanone]: in data set [1], the “Percentage remaining Human Liver” value was determined as 81% and the “Percentage remaining Mouse Liver” value worked out at 86%. In the data set “Whole blood stability” (120 mins), the “Percentage remaining Human blood” value turned out to be 115% and the “Percentage remaining Mouse blood” value is on record as 124%.

For the compound `C=CCOc1cc(OCC=C)c(C(C)C)cc1C(=O)N1Cc2ccc(CN3CCN(C)CC3)cc2C1` [Example 6, (2,4-Bis-allyloxy-5-isopropyl-phenyl)-[5-(4-methyl-piperazin-1-ylmethyl)-1,3-dihydro-isoindol-2-yl]-methanone], in data set [1], the “Percentage remaining Human Liver” value came to 94% and the “Percentage remaining Mouse Liver” value turned out to be 75%. In “Whole blood stability” (120 mins), the “Percentage remaining Human blood” value is given as 105% and the “Percentage remaining Mouse blood” value is on record as 125%.

In the case of `COCOc1cc(O)c(C(C)C)cc1C(=O)N1Cc2ccc(CN3CCN(C)CC3)cc2C1` [Example 7, [4-Hydroxy-5-isopropyl-2-(methoxymethyloxy)-phenyl]-[5-(4-methyl-piperazin-1-ylmethyl)-1,3-dihydro-isoindol-2-yl]-methanone], in data set [1], the “Percentage remaining Human Liver” value stood at 92% and the “Percentage remaining Mouse Liver” value is 115%. Moreover, in “Whole blood stability” (60 mins (footnote *)), the “Percentage remaining Mouse blood” value was 104% *. In the data set “Whole blood stability” (120 mins), the “Percentage remaining Human blood” value is listed as 109%.

As to `COCOc1cc(O)c(C(=O)N2Cc3ccc(CN4CCN(C)CC4)cc3C2)cc1C(C)C` [Example 8, [2-Hydroxy-5-isopropyl-4-(methoxymethyloxy)-phenyl]-[5-(4-methyl-piperazin-1-ylmethyl)-1,3-dihydro-isoindol-2-yl]-methanone], in data set [1], the “Percentage remaining Human Liver” value worked out at 102% and the “Percentage remaining Mouse Liver” value was found to be 79%. Further, in the data set “Whole blood stability” (120 mins), the “Percentage remaining Human blood” value is listed as 114% and the “Percentage remaining Mouse blood” value is recorded as 104%.

In the case of `COCOc1cc(OCOC)c(C(C)C)cc1C(=O)N1Cc2ccc(CN3CCN(C)CC3)cc2C1` [Example 9, [5-Isopropyl-2,4-bis-(methoxymethyloxy)-phenyl]-[5-(4-methyl-piperazin-1-ylmethyl)-1,3-dihydro-isoindol-2-yl]-methanone], in data set [1], the “Percentage remaining Human Liver” value amounted to 98% and the “Percentage remaining Mouse Liver” value worked out at 82%. In “Whole blood stability” (60 mins (footnote *)), the “Percentage remaining Mouse blood” value is recorded as 105% *. Moreover, the “Percentage remaining Human blood” value in the data set “Whole blood stability” (120 mins) is reported as 111%.

As to `CCN(CC)C(=O)Oc1cc(OC(=O)N(CC)CC)c(C(C)C)cc1C(=O)N1Cc2ccc(CN3CCN(C)CC3)cc2C1` [Example 10], in data set [1], the “Percentage remaining Human Liver” value came to 56% and the “Percentage remaining Mouse Liver” value is listed as 60%. Also, in “Whole blood stability” (120 mins), the “Percentage remaining Human blood” value stood at 108% and the “Percentage remaining Mouse blood” value was 93%.

As for `CC(C)c1cc(C(=O)N2Cc3ccc(CN4CCN(C)CC4)cc3C2)c(OC(=O)N2CCCC2)cc1OC(=O)N1CCCC1` [Example 12, 2-[2,4-bis-(pyrrolidin-1-ylcarbonyloxy)-5-isopropyl-benzoyl]-5-(4-methyl-piperazin-1-ylmethyl)-1,3-dihydro-isoindole], in data set [1], the “Percentage remaining Human Liver” value is 43% and the “Percentage remaining Mouse Liver” value was determined as 1%. Also, in “Whole blood stability” (120 mins), the “Percentage remaining Human blood” value came to 110% and the “Percentage remaining Mouse blood” value is on record as 37%.

Turning to `CC(C)c1cc(C(=O)N2Cc3ccc(CN4CCN(C)CC4)cc3C2)c(OC(=O)N2CCOCC2)cc1OC(=O)N1CCOCC1` [Example 13, 2-[2,4-bis-(morpholin-4-ylcarbonyloxy)-5-isopropyl-benzoyl]-5-(4-methyl-piperazin-1-ylmethyl)-1,3-dihydro-isoindole], in data set [1], the “Percentage remaining Human Liver” value worked out at 0% and the “Percentage remaining Mouse Liver” value came out at 0%. Moreover, in the data set “Whole blood stability” (120 mins), the “Percentage remaining Human blood” value is listed as 76% and the “Percentage remaining Mouse blood” value is reported as 0%.

Regarding `CCN(CC)C(=O)Oc1cc(O)c(C(C)C)cc1C(=O)N1Cc2ccc(CN3CCN(C)CC3)cc2C1` [Example 14, Diethyl-carbamic acid 5-hydroxy-4-isopropyl-2-[5-(4-methyl-piperazin-1-ylmethyl)-1,3-dihydro-isoindole-2-carbonyl]-phenyl ester], in data set [1], the “Percentage remaining Human Liver” value amounted to 88% and the “Percentage remaining Mouse Liver” value worked out at 89%. In addition, in the data set “Whole blood stability” (120 mins), the “Percentage remaining Human blood” value is on record as 94% and the “Percentage remaining Mouse blood” value is reported as 94%.

As for `CCN(CC)C(=O)Oc1cc(O)c(C(=O)N2Cc3ccc(CN4CCN(C)CC4)cc3C2)cc1C(C)C` [Example 15, Diethyl-carbamic acid 5-hydroxy-2-isopropyl-4-[5-(4-methyl-piperazin-1-ylmethyl)-1,3-dihydro-isoindole-2-carbonyl]-phenyl ester], in data set [1], the “Percentage remaining Human Liver” value is listed as 35% and the “Percentage remaining Mouse Liver” value is on record as 26%. In “Whole blood stability” (120 mins), the “Percentage remaining Human blood” value was 123% and the “Percentage remaining Mouse blood” value is given as 58%.

Turning to `CC(C)c1cc(C(=O)N2Cc3ccc(CN4CCN(C)CC4)cc3C2)c(OC(=O)N(C)C)cc1O` [Example 16, dimethyl-carbamic acid 5-hydroxy-4-isopropyl-2-[5-(4-methyl-piperazin-1-ylmethyl)-1,3-dihydro-isoindole-2-carbonyl]-phenyl ester], in data set [1], the “Percentage remaining Human Liver” value was determined as 73% and the “Percentage remaining Mouse Liver” value was 82%. Moreover, in the data set “Whole blood stability” (120 mins), the “Percentage remaining Human blood” value came to 104% and the “Percentage remaining Mouse blood” value turned out to be 91%.

Regarding `CC(C)c1cc(C(=O)N2Cc3ccc(CN4CCN(C)CC4)cc3C2)c(OC(=O)N2CCCC2)cc1O` [Example 18, 2-[2-(pyrrolidin-1-ylcarbonyloxy)-4-hydroxy-5-isopropyl-benzoyl]-5-(4-methyl-piperazin-1-ylmethyl)-1,3-dihydro-isoindole], in data set [1], the “Percentage remaining Human Liver” value is reported as 65% and the “Percentage remaining Mouse Liver” value is 80%. Moreover, in the data set “Whole blood stability” (60 mins (footnote *)), the “Percentage remaining Mouse blood” value is 103% *. Besides, in “Whole blood stability” (120 mins), the “Percentage remaining Human blood” value was 110%.
